Data reported in paper PMC7282810, “Existence and functions of a kisspeptin neuropeptide signaling system in a non-chordate deuterostome species” (eLife, 2020).
“Also recorded” adds a separate entry of the source. Bridges are numbered along the chain shown (N, C = ends). Where no end group is shown, it is not given here.

T1: AjKissR1 (Apostichopus japonicus, UniProt A0A5B7LK60)
T1 sequence (A0A5B7LK60 1-378): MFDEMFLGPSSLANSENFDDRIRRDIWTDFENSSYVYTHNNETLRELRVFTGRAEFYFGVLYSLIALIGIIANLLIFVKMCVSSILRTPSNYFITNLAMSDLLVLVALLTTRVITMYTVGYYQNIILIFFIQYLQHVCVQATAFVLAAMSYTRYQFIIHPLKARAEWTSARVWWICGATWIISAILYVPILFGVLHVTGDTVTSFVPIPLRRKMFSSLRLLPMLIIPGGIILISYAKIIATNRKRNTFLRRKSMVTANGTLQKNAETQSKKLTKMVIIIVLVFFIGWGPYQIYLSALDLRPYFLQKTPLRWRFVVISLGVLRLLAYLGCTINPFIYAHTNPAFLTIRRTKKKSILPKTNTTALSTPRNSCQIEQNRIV

T2: AjKissR2 (Apostichopus japonicus, UniProt A0A5B7LIE4)
T2 sequence (A0A5B7LIE4 1-327): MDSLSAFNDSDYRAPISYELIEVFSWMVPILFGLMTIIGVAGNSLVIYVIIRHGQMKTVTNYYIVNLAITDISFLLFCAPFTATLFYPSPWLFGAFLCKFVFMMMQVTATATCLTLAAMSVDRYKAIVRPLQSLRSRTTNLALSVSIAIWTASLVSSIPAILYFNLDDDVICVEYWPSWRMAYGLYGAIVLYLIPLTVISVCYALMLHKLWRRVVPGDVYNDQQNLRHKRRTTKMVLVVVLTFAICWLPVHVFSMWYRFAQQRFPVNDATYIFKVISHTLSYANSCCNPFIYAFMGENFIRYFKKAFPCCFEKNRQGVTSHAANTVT

T3: FLAG–AjKissR1 (Apostichopus japonicus)
T3 chain: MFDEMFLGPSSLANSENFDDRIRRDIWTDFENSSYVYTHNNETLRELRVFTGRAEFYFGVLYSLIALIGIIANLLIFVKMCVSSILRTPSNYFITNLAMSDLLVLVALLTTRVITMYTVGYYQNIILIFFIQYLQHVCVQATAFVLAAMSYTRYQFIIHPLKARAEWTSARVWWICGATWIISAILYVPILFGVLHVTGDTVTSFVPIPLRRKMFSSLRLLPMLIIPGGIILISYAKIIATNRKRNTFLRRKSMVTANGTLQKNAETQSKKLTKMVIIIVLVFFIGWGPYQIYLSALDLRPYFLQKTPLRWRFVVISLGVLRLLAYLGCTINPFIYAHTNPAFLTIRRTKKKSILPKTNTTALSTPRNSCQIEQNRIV


How the values were obtained:
AjKissR1 [1] = target: T1, AjKissR1; experiment: cell-based; type: cell-based; details: for Potency in triggering intracellular Ca2+ mobilization via AjKissR1 (in words): HEK293, Fura-2/AM, vertebrate kisspeptins and FITC-AjKiss1a at 1.0 μM
Protocol: (§1) The fluorescent Ca^2+ indicator Fura-2/AM was used to detect intracellular calcium flux ([Li et al., 2010]). Briefly, the HEK293 cells expressing the AjKissR1, AjKissR2 or vertebrate kisspeptin receptor were washed twice with PBS and suspended at 5 × 10^6 cells/mL in Hanks’ balanced salt solution. The cells were then loaded with 3.0 μM Fura-2/AM for 30 min and washed twice in Hanks’ solution. They were then stimulated with the indicated concentrations of different predicted A. japonicus kisspeptins or vertebrate kisspeptins. Finally, intracellular calcium flux was measured for 60 s, by determining the ratio of excitation wavelengths at 340 and 380 nm using a fluorescence spectrometer (Infinite 200 PRO, Tecan, Männedorf, Switzerland). All of the experiments for measuring Ca^2+ mobilization were repeated independently at least three times.

AjKissR2 [2] = target: T2, AjKissR2; experiment: cell-based; type: cell-based; details: for Potency in triggering intracellular Ca2+ mobilization via AjKissR2 (in words): HEK293, Fura-2/AM, vertebrate kisspeptins and FITC-AjKiss1a at 1.0 μM
Protocol: as §1

AjKissR2 [3] = target: T2, AjKissR2; experiment: Ligand competition binding assay (FITC-AjKiss1a, FACS), HEK293/AjKissR2; details: 1.0 μM FITC-AjKiss1a, read-out: IC50 (competitive displacement of FITC-AjKiss1a)
Protocol: (§2) A fluorescence-activated cell sorter (FACS) was used to detect the binding ability of kisspeptins with AjKissR1 or AjKissR2. HEK293 cells expressing FLAG–AjKissR1 or FLAG–AjKissR2 were washed with PBS that contained 0.2% bovine serum albumin (FACS buffer). We designed and synthesized an N-terminal FITC-labeled AjKiss1a peptide (see 'Key resources table'). Different kisspeptins were diluted in the FACS buffer to different concentrations, then added to cells that were incubated on ice for 60–90 min. Cells were washed thrice with the FACS buffer and re-suspended in the FACS buffer with 1% paraformaldehyde for 15 min. The binding activity of the indicated kisspeptin peptides with AjKissR1 or AjKissR2 was determined by measuring the fluorescence of FITC and was presented as a percentage of total binding.

AjKissR1 [4] = target: T1, AjKissR1; experiment: Ligand competition binding assay (FITC-AjKiss1a, FACS), HEK293/AjKissR1; details: 1.0 μM FITC-AjKiss1a, read-out: IC50 (competitive displacement of FITC-AjKiss1a)
Protocol: as §2

AjKissR1 [5] = target: T1, AjKissR1; experiment: ERK1/2 phosphorylation (western blot) in HEK293 cells expressing FLAG-AjKissR1; type: cell-based; details: different concentrations for 5 min, immunoblot quantification, Figure 6A
Protocol: (§3) To examine the phosphorylation of ERK, cells that expressed AjKissr1/2 or other GPR54s were incubated for the indicated times with different concentrations of kisspeptins. Subsequently, cells were lysed with lysis buffer (Beyotime) that contained protease inhibitor (Roche) at 4°C for 30 min on a rocker and then scraped. Proteins were then electrophoresed on a 10% SDS polyacrylamide gel and transferred to polyvinylidene difluoride (PVDF) membranes. Membranes were blocked with 5% skimmed milk, then probed with rabbit anti-phospho-ERK1/2(Thr^202/Tyr^204) antibody (1:2000; Cell Signaling Technology), followed by detection using HRP-conjugated goat anti-rabbit IgG (Beyotime). Blots were stripped and reprobed using anti-ERK1/2 antibody (1:2000; Cell Signaling Technology) as a control for protein loading.
(§4) Immunoreactive bands were detected with an enhanced chemiluminescent substrate (Beyotime), and the membrane was scanned using a Tanon 5200 Chemiluminescent Imaging System (Tanon Science and Technology, Shanghai, China).

AjKissR2 [6] = target: T2, AjKissR2; experiment: ERK1/2 phosphorylation (western blot) in HEK293 cells expressing FLAG-AjKissR2; type: cell-based; details: different concentrations for 5 min, immunoblot quantification, Figure 6A
Protocol: as §3, §4

FLAG–AjKissR1 = target: T3, FLAG–AjKissR1; experiment: competition with 1.0 uM FITC-AjKiss1a
[7] = target: FLAG–AjKissR2 (Apostichopus japonicus); experiment: flow cytometry on cells; ligand competition: 1.0 uM FITC-AjKiss1a with unlabeled kisspeptins at the indicated concentrations on HEK293 cells expressing FLAG-AjKissR1 or FLAG-AjKissR2; on ice 60-90 min; PBS with 0.2% BSA; FITC fluorescence as percentage of total binding

Molecule | Potency in triggering intracellular Ca2+ mobilization via AjKissR1 (in words) (AjKissR1 [1]) | Potency in triggering intracellular Ca2+ mobilization via AjKissR2 (in words) (AjKissR2 [2]) | further results
GRQPNRNAHYRTLPF-NH2 [AjKiss1a-15, truncated peptide of AjKiss1a] | failed to activate | failed to activate | –
HsNPS: human neuropeptide S, as a negative control (SFRNGVGTGMKKTSFQRAKS) [reference compound] | no potency | no potency | –
SAVKNKNKSRARPPLLPF-NH2 [AjKiss1b] | – | – | EC50 (AjKissR1 [1]): 8.06 nM; EC50 (AjKissR2 [2]): 33.2 nM; IC50 (AjKissR2 [3]): 1250 nM; IC50 (AjKissR1 [4]): 353 nM
SRARPPLLPF-NH2 [AjKiss1b-10] | – | – | EC50 (AjKissR1 [5]): 31.6 nM; EC50 (AjKissR1 [1]): 1.71 nM; EC50 (AjKissR2 [2]): 27.3 nM; EC50 (AjKissR2 [6]): 98.7 nM
YNLNSFGLRY-NH2 [DrKiss1-10, synthetic zebrafish kisspeptin decapeptide, reference compound] | much lower potency; also recorded: potent | higher potency than that of HsKiss1-10; also recorded: potent | –
YNVNSFGLRF-NH2 [XtKiss1b-10, synthetic frog kisspeptin decapeptide, reference compound] | higher potency; also recorded: potent | higher potency than that of HsKiss1-10; also recorded: potent | –
YNWNSFGLRF-NH2 [HsKiss1-10, synthetic human kisspeptin decapeptide, reference compound] | higher potency; also recorded: potent | potent | –
AGSLDCLEASCEDVERRGRQPNRNAHYRTLPF-NH2 (disulfide 6-11; N-terminus assumed; SMILES CC(C)C[C@H](NC(=O)[C@H](CO)NC(=O)CNC(=O)[C@H](C)N)C(=O)N[C@@H](CC(=O)O)C(=O)N[C@H]1CSSC[C@@H](C(=O)N[C@@H](CCC(=O)O)C(=O)N[C@@H](CC(=O)O)C(=O)N[C@H](C(=O)N[C@@H](CCC(=O)O)C(=O)N[C@@H](CCCNC(=N)N)C(=O)N[C@@H](CCCNC(=N)N)C(=O)NCC(=O)N[C@@H](CCCNC(=N)N)C(=O)N[C@@H](CCC(N)=O)C(=O)N2CCC[C@H]2C(=O)N[C@@H](CC(N)=O)C(=O)N[C@@H](CCCNC(=N)N)C(=O)N[C@@H](CC(N)=O)C(=O)N[C@@H](C)C(=O)N[C@@H](Cc2c[nH]cn2)C(=O)N[C@@H](Cc2ccc(O)cc2)C(=O)N[C@@H](CCCNC(=N)N)C(=O)N[C@H](C(=O)N[C@@H](CC(C)C)C(=O)N2CCC[C@H]2C(=O)N[C@@H](Cc2ccccc2)C(N)=O)[C@@H](C)O)C(C)C)NC(=O)[C@H](CO)NC(=O)[C@H](C)NC(=O)[C@H](CCC(=O)O)NC(=O)[C@H](CC(C)C)NC1=O) [AjKiss1a (C-terminal amidated)] | – | – | IC50 (FLAG–AjKissR1): 568 nM; IC50 [7]: 95.2 nM
